Experimental data taken from patent US20240197699A1, “BE[…] FOR USE IN THERAPY” (MOLECULAR RESEARCH PHARMACT S.R.L., priority 2021, published 2024).

How the values were obtained:
[1] = test system: AMPK, the downstream intracellular mediator of adiponectin receptors; experiment: Concentration-dependent activation of AMPK in HT22 neuronal cells (western blot, pAMPK/AMPK); format: cell-based, mouse; conditions: HT22 cells, 0, 10, 25 nM, 30 minutes, serum-free DMEM
Procedure: A rabbit anti-phospho-AMPK polyclonal antibody (pAMPK) (Cell Signaling Technology, Ltd.), a rabbit anti-AMPK polyclonal antibody (Cell Signaling Technology, Ltd.) and an HRP conjugated mouse monoclonal anti-β-actin antibody (Cell Signaling Technology, Ltd.) were used as primary antibodies after being suitably diluted. An HRP-labeled rabbit IgG goat antibody (Dako, Glostrup, Denmark) was used as a secondary antibody.
(§1) Under conditions of 5% CO2 at 37° C., mouse neuronal cells (HT22) were maintained and expanded in a Dulbecco-modified high-glucose Eagle medium (DMEM, GIBCO, Invitrogen, Life Technologies Hong Kong Ltd.), containing 10% fetal bovine serum (FBS, HiClone, Cytiva Co., Ltd.) and 1% v/v penicillin/streptomycin (Life Technologies Hong Kong Ltd.).
The compound was dissolved in DMSO (Sigmaldrich Co Ltd.) at a concentration of 10 mM as a stock. […]
Each cell sample was homogenized in ice-cold lysis buffer (Cell Signaling Technology, USA), containing a cocktail of protease inhibitors, by ultrasonic homogenizer before being centrifuged at 12,000×g, 4° C. for 15 min. […] The protein concentration of each fraction was measured using the BioRad Protein Assay reagent (Bio-Rad Laboratories, Inc.). […] The densitometric analysis of the bands detected by the chemiluminescent reaction was quantified by the Image J software (NIH: National Institutes of Health). […]

[2] = molecular target: T1, AdipoR1 (Mus musculus, UniProt Q91VH1); experiment: AMPK activation by the compound in HT22 cells under AdipoR1 knock-down (siAdipoR1); format: cell-based; conditions: HT22 cells transfected with siAdipoR1, compound 25 nM, 30 minutes
T1 construct: siAdipoR1, siAdipoR2 were prepared in DMEM to break down the expression of AdipoR1 and AdipoR2, respectively; endogenous in cells; host or cells: HT22 mouse neuronal cells
T1 sequence (Q91VH1 1-375): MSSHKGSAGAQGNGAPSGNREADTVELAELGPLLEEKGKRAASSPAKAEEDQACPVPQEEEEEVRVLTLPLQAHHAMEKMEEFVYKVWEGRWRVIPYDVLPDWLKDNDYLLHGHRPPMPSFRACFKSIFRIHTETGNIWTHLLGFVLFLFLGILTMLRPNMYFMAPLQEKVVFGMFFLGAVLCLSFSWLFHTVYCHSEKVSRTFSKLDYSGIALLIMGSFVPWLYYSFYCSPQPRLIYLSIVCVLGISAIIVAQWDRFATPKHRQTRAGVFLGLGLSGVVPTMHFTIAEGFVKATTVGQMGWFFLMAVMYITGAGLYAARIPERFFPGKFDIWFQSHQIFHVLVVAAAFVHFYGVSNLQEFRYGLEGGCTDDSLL
Description: A rabbit adiponectin anti-receptor 1 polyclonal antibody (AdipoR1)(Abcam, Cambridge, MA, USA), a rabbit adiponectin anti-receptor 2 polyclonal antibody (AdipoR2) (Boster Biological Technology, USA), an anti-phospho-AMPK (pAMPK) rabbit polyclonal antibody (Cell Signaling Technology, Ltd.), an anti-AMPK rabbit polyclonal antibody (Cell Signaling Technology, Ltd.) and an HRP conjugated mouse monoclonal anti-§ (beta)-actin antibody (Cell Signaling Technology, Ltd.) were used as primary antibodies after being suitably diluted. An HRP conjugated goat anti-rabbit IgG antibody (Dako, Glostrup, Denmark) was used as secondary antibody.
as §1, with “are” for “were”
SiRNA scramble (non-targeting RNA), siAdipoR1 and siAdipoR2 were purchased from Santa Cruz Biotechnology. siAdipoR1, siAdipoR2 were prepared in DMEM to break down the expression of AdipoR1 and AdipoR2, respectively. […]
The extraction of each soluble fraction and the quantification of the proteins in each soluble fraction by western blot analysis were performed according to procedures similar to section 1.4 of Experiment 1.

[3] = test system: NSC-34 cells; experiment: Viability of NSC-34 neuronal cells under high glucose (hyperglycemia-induced apoptosis); format: cell-based; conditions: pre-treatment 25 nM, then 100 mM glucose
Procedure: A high glucose level is the cause of neuronal apoptosis leading to diabetic neuropathy. To examine whether SS-SRGR-(+7) can protect neurons from the hyperglycemic condition, neuronal cells in different glucose concentrations (0, 25, 50, 100 mM) were grown. […] NSC-34 neurons were then pre-treated with or without SS-SRGR-(+7)(25 nM) prior to incubation with 100 mM glucose.

SMILES: CC1C2Cc3ccc(O)cc3C1(C)CCN2CCC(C(=O)N(C)C)(c1ccccc1)c1ccccc1 (stereo not drawn) [SS-SRGR-(+7), 4-(8-hydroxy-6,11-dimethyl-1,4,5,6-tetrahydro-2,6-methane-3-benzazocin-3(2H)-yl)-N,N-dimethyl-2,2-diphenylbutanamide]
- amounts of pAMPK proteins (pAMPK/AMPK ratio, densitometry) [1]: increase significantly in a concentration-dependent manner
- SS-SRGR-(+7)-induced AMPK activation under Adipo-R1 knock-down compared to siCtrl-transfected HT22 cells [2]: significantly reduced
- Cell viability of pretreated NSC34 cells versus vehicle-pretreated NSC34 [3]: significantly higher
